The source of these data is US8884017B2, “2-heteroarylcarboxylic acid amides” (Bayer Intellectual Property GmbH, priority 2001, dated 2014).

A word on the Ki: it is the equilibrium dissociation constant of an inhibitor or competing ligand from its target. Read a high Ki as a looser hold on the target.

Molecules are shown by their SMILES. Where a name gives a salt, the structure may show the parent alone.

The target of the assay is α7-nAChR (Rattus norvegicus (Rat), UniProt Q05941). In words: Affinity for α7-nAChR by inhibition of [3H]-methyllycaconitine binding to rat brain membranes. The following applies: rat brain membranes (P2 fraction), Ki=IC50/(1+L/KD). As for the experimental part: 1. Determination of the Affinity of Test Substances for α7-nAChR by Inhibition of [^3H]-methyllycaconitine Binding to Rat Brain Membranes
The [^3H]-methyllycaconitine binding assay is a modification of the method described by Davies et al. in Neuropharmacol.
Rat brain tissue (hippocampus or whole brain) is homogenized in homogenization buffer (10% w/v, 0.32 M sucrose, 1 mM EDTA, 0.1 mM phenylmethylsulfonyl fluoride (PMSF), 0.01% (w/v) NaN3, pH 7.4, 4° C.) at 600 rpm in a glass homogenizer. The homogenate is centrifuged (1000×g, 4° C., 10 min) and the supernatant is removed. The pellet is resuspended (20% w/v) and the suspension is centrifuged (1000×g, 4° C., 10 min). The two supernatants are combined and centrifuged (15 000×g, 4° C., 30 min). The pellet obtained in this way is referred to as the P2 fraction.
The P2 pellet is washed with binding buffer (50 mM Tris-HCl, 1 mM MgCl2, 120 mM NaCl, 5 mM KCl, 2 mM CaCl2, pH 7.4), and centrifuged (15 000×g, 4° C., 30 min), twice.
The P2 membranes are resuspended in binding buffer and incubated in a volume of 250 μl (amount of membrane protein 0.1-0.5 mg) in the presence of 1-5 nM [^3H]-methyllycaconitine, 0.1% (w/v) BSA (bovine serum albumin) and various concentrations of the test substance at 21° C. for 2.5 h. Incubation is then carried out in the presence of 1 μM α-bungarotoxin or 100 μM nicotine or 10 μM MLA (methyllycaconitine) to determine the non-specific binding.
The incubation is stopped by adding 4 ml PBS (20 mM Na2HPO4, 5 mM KH2PO4, 150 mM NaCl, pH 7.4, 4° C.) and filtering through type A/E glass fibre filters (Gelman Sciences) which have previously been placed in 0.3% (v/v) polyethyleneimine (PEI) for 3 h. The filters are washed twice with 4 ml of PBS (4° C.), and the bound radioactivity is determined by scintillation measurement. All the assays are carried out in triplicate.

Sequence of α7-nAChR (Q05941 23-502 limits assumed): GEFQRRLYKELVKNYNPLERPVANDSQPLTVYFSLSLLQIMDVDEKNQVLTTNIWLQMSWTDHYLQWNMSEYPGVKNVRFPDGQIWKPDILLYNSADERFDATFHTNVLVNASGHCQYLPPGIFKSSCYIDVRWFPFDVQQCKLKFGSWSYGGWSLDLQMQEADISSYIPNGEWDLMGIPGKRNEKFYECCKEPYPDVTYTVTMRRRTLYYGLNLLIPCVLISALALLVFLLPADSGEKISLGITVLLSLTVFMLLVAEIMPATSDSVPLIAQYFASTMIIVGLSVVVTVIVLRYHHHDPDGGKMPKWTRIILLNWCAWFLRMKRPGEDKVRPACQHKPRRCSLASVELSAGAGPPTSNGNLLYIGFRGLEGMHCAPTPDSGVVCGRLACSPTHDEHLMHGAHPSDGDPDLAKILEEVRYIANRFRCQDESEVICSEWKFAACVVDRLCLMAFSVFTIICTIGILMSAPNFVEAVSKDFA

For `COc1cccc2cc(C(=O)N[C@H]3CN4CCC3CC4)oc12` [Example 19, N-[(3R)-1-Azabicyclo[2.2.2]oct-3-yl]-7-methoxy-1-benzofuran-2-carboxamide hydrochloride], the Ki was found to be 42 nM.
As for `Nc1ccc2cc(C(=O)N[C@H]3CN4CCC3CC4)oc2c1` [Example 35, N-[(3R)-1-Azabicyclo[2.2.2]oct-3-yl]-6-amino-1-benzofuran-2-carboxamide], the figure is 3.7 nM; as for `O=C(N[C@H]1CN2CCC1CC2)c1cc2cccc([N+](=O)[O-])c2o1` [Example 36, N-[(3R)-1-Azabicyclo[2.2.2]oct-3-yl]-7-nitro-1-benzofuran-2-carboxamide], 63 nM; as for `Nc1cccc2cc(C(=O)N[C@H]3CN4CCC3CC4)oc12` [Example 37, N-[(3R)-1-Azabicyclo[2.2.2]oct-3-yl]-7-amino-1-benzofuran-2-carboxamide], 80 nM.
`O=C(N[C@H]1CN2CCC1CC2)c1cc2cc(F)ccc2o1` [Example 42, N-[(3R)-1-Azabicyclo[2.2.2]oct-3-yl]-5-fluoro-1-benzofuran-2-carboxamide hydrochloride]: the Ki amounted to 37 nM.
As for `O=C(N[C@H]1CN2CCC1CC2)c1cc2cccc(Br)c2o1` [Example 46, N-[(3R)-1-Azabicyclo[2.2.2]oct-3-yl]-7-bromo-1-benzofuran-2-carboxamide], the figure is 58 nM; as for `O=C(N[C@H]1CN2CCC1CC2)c1cc2ccc3ccccc3c2o1` [Example 48, N-[(3R)-1-Azabicyclo[2.2.2]oct-3-yl]naphtho[1,2-b]furan-2-carboxamide hydrochloride], 75 nM; as for `O=C(N[C@@H]1CN2CCC1CC2)c1cc2cccc(F)c2s1` [Example 59, N-[(3S)-1-Azabicyclo[2.2.2]oct-3-yl]-7-fluoro-1-benzothiophene-2-carboxamide hydrochloride], 20 nM.
With `Nc1ccc2sc(C(=O)N[C@H]3CN4CCC3CC4)cc2c1` [Example 62, N-[(3R)-1-Azabicyclo[2.2.2]oct-3-yl]-5-amino-1-benzothiophene-2-carboxamide dihydrochloride], the affinity corresponds to a Ki of 50 nM.
Under `O=C(N[C@H]1CN2CCC1CC2)c1cc2cccc(C(F)(F)F)c2s1` [Example 64, N-[(3R)-1-Azabicyclo[2.2.2]oct-3-yl]-7-trifluoromethyl-1-benzothiophene-2-carboxamide hydrochloride] stands 20 nM; under `O=C(N[C@@H]1CN2CCC1CC2)c1cc2cccc(C(F)(F)F)c2s1` [Example 65, N-[(3S)-1-Azabicyclo[2.2.2]oct-3-yl]-7-trifluoromethyl-1-benzothiophene-2-carboxamide hydrochloride], 55 nM; under `Nc1cccc2cc(C(=O)N[C@H]3CN4CCC3CC4)sc12` [Example 68, N-[(3R)-1-Azabicyclo[2.2.2]oct-3-yl]-7-amino-1-benzothiophene-2-carboxamide dihydrochloride], 2 nM.
As for `Nc1ccc2cc(C(=O)N[C@H]3CN4CCC3CC4)sc2c1` [Example 73, 6-Amino-N-[(3R)-1-azabicyclo[2.2.2]oct-3-yl]-1-benzothiophene-2-carboxamide dihydrochloride], the figure is 2.8 nM; as for `O=C(N[C@H]1CN2CCC1CC2)c1cc2cc(F)ccc2s1` [Example 74, N-[(3R)-1-Azabicyclo[2.2.2]oct-3-yl]-5-fluoro-1-benzothiophene-2-carboxamide hydrochloride], 22 nM.
As for `COc1cccc2cc(C(=O)N[C@H]3CN4CCC3CC4)sc12` [Example 76, N-[(3R)-1-Azabicyclo[2.2.2]oct-3-yl]-7-methoxy-1-benzothiophene-2-carboxamide hydrochloride], the figure is 6.7 nM; as for `COc1cccc2cc(C(=O)N[C@@H]3CN4CCC3CC4)sc12` [Example 77, N-[(3S)-1-Azabicyclo[2.2.2]oct-3-yl]-7-methoxy-1-benzothiophene-2-carboxamide hydrochloride], 20 nM; as for `O=C(N[C@H]1CN2CCC1CC2)c1cc2c(F)cccc2s1` [Example 78, N-[(3R)-1-Azabicyclo[2.2.2]oct-3-yl]-4-fluoro-1-benzothiophene-2-carboxamide hydrochloride], 80 nM.
With `O=C(N[C@H]1CN2CCC1CC2)c1cc2cc(F)cc(F)c2s1` [Example 80, N-[(3R)-1-Azabicyclo[2.2.2]oct-3-yl]-5,7-difluoro-1-benzothiophene-2-carboxamide hydrochloride], the affinity, expressed as Ki, was 31 nM.
Under `CC(=O)Nc1ccc2cc(C(=O)N[C@H]3CN4CCC3CC4)sc2c1` [Example 88, 6-(Acetylamino)-N-[(3R)-1-azabicyclo[2.2.2]oct-3-yl]-1-benzothiophene-2-carboxamide hydrochloride] stands 28 nM.
